Laboratory results taken from patent US9550793B2, “Spirocyclic compounds, compositions and medicinal applications thereof” (Advinus Therapeutics Limited, priority 2012, dated 2017).

Target: T1, hDGAT1 (Homo sapiens, UniProt O75907)
T1 construct: endogenous in cells; host or cells: HEK293H cells
T1 sequence (O75907 1-488): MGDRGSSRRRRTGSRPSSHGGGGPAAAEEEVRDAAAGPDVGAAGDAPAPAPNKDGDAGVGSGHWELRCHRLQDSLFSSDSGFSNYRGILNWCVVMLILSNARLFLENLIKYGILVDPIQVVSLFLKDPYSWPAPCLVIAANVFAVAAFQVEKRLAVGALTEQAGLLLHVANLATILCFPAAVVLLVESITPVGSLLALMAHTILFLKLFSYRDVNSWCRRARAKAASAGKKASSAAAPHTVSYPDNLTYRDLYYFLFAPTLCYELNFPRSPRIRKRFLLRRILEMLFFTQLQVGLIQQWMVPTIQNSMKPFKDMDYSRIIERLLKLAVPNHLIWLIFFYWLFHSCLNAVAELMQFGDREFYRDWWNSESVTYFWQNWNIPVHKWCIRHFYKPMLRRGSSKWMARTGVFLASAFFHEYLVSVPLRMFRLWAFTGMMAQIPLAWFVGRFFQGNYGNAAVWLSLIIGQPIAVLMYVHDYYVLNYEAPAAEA
Test: Cell based hDGAT1 inhibitory activity in HEK293H cells (13C-oleic acid to triolein, LC-MS)
Details: for inhibition at 1 µM: HEK293-H
Procedure: Measurement of Cell Based hDGAT1 Inhibitory Activity:
HEK293H cells were seeded in a 96-well poly-D-lysine plate at a density of 80000 cells per well. Following day, cells were washed with assay buffer-DMEM high glucose supplemented with 25 mM Hepes (pH7.5) carrying 0.25% fatty acid-free bovine serum. The cells were starved in assay buffer at 37° C./5% CO2 followed by removal of media and treatment with appropriate concentrations of the test compound at a final concentration of 0.2% DMSO for 20 min. 13C-Oleic acid pre-complexed with BSA (300 uM) was added and cells were incubated further at […]/5% CO2 for 120 min. The supernatant was removed and the cells were allowed to air dry briefly. The extraction solvent (90% isopropyl alcohol and 10% tetrahydrofuran with 20 nM of the internal standard [1,3-di-heptadecanoyl-2-(10Z-heptadecanoyl)-sn-glycerol-d5) was added to the cells, and allowed to shake at room temperature for 15 min. The extract was then transferred to glass vials for LC-MS analysis. An Applied Biosystems API3200 LC/MS system interfaced with a triplequadrupole mass spectrophotometer through a Turbo ion spray source was employed for the LC separation of the analytes using a Hi-Purity ADVANCE column eluted with 10 mM ammonium formate in IPA-H2O (80:20) at a flow rate of 0.4 mL/min. A characteristic in-source fragment ion m/z 639.7 formed from the precursor ion ^13C-54-triolein (m/z 956.8, ammonium adduct) at a collision energy of 30 and declustering potential 70 was monitored. IC50 values of the compounds were determined based on percent inhibition calculated on the basis of area ratio of product (TG) and internal standard (IS).

Structure (SMILES) | inhibition at 1 µM (1 uM) | IC50 | other results
O=C(Nc1ccc(N2CCC3(CC2)CC(C(=O)N2CCOCC2)C3)nc1)c1nnc(Nc2ccc(F)c(F)c2)o1 [Example C3] | 84% |  | 
O=C(Nc1ccc(N2CCC3(CC2)CC(F)C3)nc1)c1nnc(Nc2ccc(OCC(F)(F)F)nc2)o1 [Example D8] | 77% |  | 
CC1CC2(CCN(c3ccc(NC(=O)c4nnc(Nc5ccc(OCC(F)(F)F)nc5)o4)cn3)CC2)C1 [Example D4] |  | 26 nM | 
CC1(C)CN(c2ccc(C3CCC4(CC3)CC4C(=O)O)cc2)C(=O)c2c(N)ncnc21 (centres unmarked) [Example L5, 6-[4-(4-amino-8,8-dimethyl-5-oxo-7H-pyrido[4,3-d]pyrimidin-6-yl)phenyl]spiro[2.5]octane-2-carboxylic acid] |  |  | HEK293H cell % Inhibition at 1 uM (1 uM): No inhibition at 1 μM
COC1CCN(C(=O)C2CC3(CCN(c4ccc(NC(=O)c5nnc(Nc6ccc(F)c(F)c6)o5)cn4)CC3)C2)CC1 [Example C5] | 90% |  | 
O=C(Nc1ccc(N2CCC3(CC2)CC(C(=O)N2CCC(O)CC2)C3)nc1)c1nnc(Nc2ccc(F)c(F)c2)o1 [Example C6] |  | 33 nM | 
O=C(Nc1ccc(N2CCC3(CC2)CC(F)(F)C3)nc1)c1nnc(Nc2ccc(F)c(F)c2)o1 [Example D1, 5-(3,4-difluoroanilino)-N-[6-(2,2-difluoro-7-azaspiro[3.5]nonan-7-yl)-3-pyridyl]-1,3,4-oxadiazole-2-carboxamide] |  | 85 nM | 
O=C(Nc1ccc(N2CCC3(CC2)CC(C(=O)NCC(F)(F)F)C3)nc1)c1nnc(Nc2ccc(F)c(F)c2)o1 [Example C4] | 84% |  | 
CC1(C)CN(c2ccc(C3CCC4(CCC(CC(=O)O)CC4)CC3)cc2)C(=O)c2c(N)ncnc21 (centres unmarked) [Example L6] | 3% |  | 
NC(=O)C1CC2(CCN(c3ccc(NC(=O)c4nnc(Nc5ccc(F)c(F)c5)o4)cn3)CC2)C1 [Example F1, N-[6-(2-carbamoyl-7-azaspiro[3.5]nonan-7-yl)-3-pyridyl]-5-(3,4-difluoroanilino)-1,3,4-oxadiazole-2-carboxamide] |  | 44 nM | 
O=C(Nc1ccc(N2CCC3(CC2)CC(O)C3)nc1)c1nnc(Nc2ccc(OCC(F)(F)F)nc2)o1 [Example D6] |  | 4.2 nM | 
O=C(Nc1ccc(N2CCC3(CC2)CC(F)C3)nc1)c1nnc(Nc2ccc(F)c(F)c2)o1 [Example D7] | 87% |  | 
O=C(Nc1ccc(N2CCC3(CC2)CC(C(=O)O)C3)nc1)c1nnc(Nc2ccc(OCC(F)(F)F)nc2)o1 [Example B13, 7-[5-[[5-[[6-(2,2,2-trifluoroethoxy)-3-pyridyl]amino]-1,3,4-oxadiazole-2-carbonyl]amino]-2-pyridyl]-7-azaspiro[3.5]nonane-2-carboxylic acid] |  | 47 nM | 
O=C(Nc1ccc(C2CCC3(CC2)CC3C(=O)O)cc1)c1nnc(Nc2ccc(F)c(F)c2)o1 (centres unmarked) [Example B14, 6-[4-[[5-(3,4-difluoroanilino)-1,3,4-oxadiazole-2-carbonyl]amino]phenyl] spiro [2.5] octane-2-carboxylic acid] |  | 21 nM | 
O=C(Nc1ccc(N2C3CCC2CC2(CC(C(=O)O)C2)C3)nc1)c1nnc(Nc2ccc(F)c(F)c2)o1 (centres unmarked) [Example B31, 8-[5-[[5-(3,4-difluoroanilino)-1,3,4-oxadiazole-2-carbonyl]amino]-2-pyridyl] spiro [8-azabicyclo [3.2.1]octane-3,3′-cyclobutane]-1′-carboxylic acid] |  | 37 nM | 
CCOC(=O)C1CC2(CCN(c3ccc(NC(=O)c4nnc(Nc5ccc(F)c(F)c5)o4)cn3)CC2)C1 [Example A12, ethyl 7-[5-[[5-(3,4-difluoroanilino)-1,3,4-oxadiazole-2-carbonyl]amino]-2-pyridyl]-7-azaspiro[3.5]nonane-2-carboxylate] |  | 22 nM | 

Structure (SMILES) | inhibition at 1 µM (1 uM) | IC50 | other results
O=C(Nc1ccc([C@H]2CC[C@]3(CC2)CC3C(=O)O)nc1)c1nnc(Nc2ccccc2)o1 (stereo partly drawn) [Example B24, Trans-6-[5-[(5-anilino-1,3,4-oxadiazole-2-carbonyl)amino]-2-pyridyl] spiro [2.5] octane-2-carboxylic acid] | 49% |  | 
Cn1nnnc1C1CC2(CCN(c3ccc(NC(=O)c4nnc(Nc5ccc(F)c(F)c5)o4)cn3)CC2)C1 [Example D9] | 91% |  | 
O=C(Nc1ccc(N2CCC3(CC2)CC(O)C3)nc1)c1nnc(Nc2ccc(F)c(F)c2)o1 [Example D5] |  | 4 nM | 
CC1CC2(CCN(c3ccc(NC(=O)c4nnc(Nc5ccc(F)c(F)c5)o4)cn3)CC2)C1 [Example D3] |  | 32 nM | 
O=C1CCN(C(=O)C2CC3(CCN(c4ccc(NC(=O)c5nnc(Nc6ccc(F)c(F)c6)o5)cn4)CC3)C2)CC1 [Example C9] | 92% |  | 
O=C(Nc1ccc(C2CCC3(CC2)CC3C(=O)O)cc1)c1nnc(Nc2ccc(OCC(F)(F)F)nc2)o1 (centres unmarked) [Example B15, 6-[4-[[5-[[6-(2,2,-trifluoroethoxy)-3-pyridyl]amino]-1,3,4-oxadiazole-2-carbonyl]amino]phenyl] spiro [2.5] octane-2-carboxylic acid] |  | 10 nM | 
O=C(Nc1ccc(N2CCC3(CC2)CC(C(=O)N2CCCC2)C3)nc1)c1nnc(Nc2ccc(F)c(F)c2)o1 [Example C1, 5-(3,4-difluoroanilino)-N-[6-[2-(pyrrolidine-1-carbonyl)-7-azaspiro[3.5]nonan-7-yl]-3-pyridyl]-1,3,4-oxadiazole-2-carboxamide] | 86% |  | 
O=C(Nc1ccc(C2CCC3(CC2)CC3C(=O)O)cc1)c1nnc(Nc2cccc(Cl)c2)o1 (centres unmarked) [Example B16, 6-[4-[[5-(3-chloroanilino)-1,3,4-oxadiazole-2-carbonyl]amino]phenyl] spiro [2.5] octane-2-carboxylic acid] |  | 16 nM | 
COC(=O)C1CC2(CCC(c3ccc(NC(=O)c4nnc(Nc5ccc(F)c(F)c5)o4)cc3)CC2)C1 (centres unmarked) [Example A9, methyl 7-[4-[[5-(3,4-difluoroanilino)-1,3,4-oxadiazole-2-carbonyl]amino]phenyl]spiro[3.5]nonane-2-carboxylate] |  | 31 nM | 
O=C(Nc1ccc(N2CCC3(CC2)CC3C(=O)O)nc1)c1nnc(Nc2ccc(OCC(F)(F)F)nc2)o1 (centres unmarked) [Example B21, 6-[5-[[5-[[6-(2,2,2-trifluoroethoxy)-3-pyridyl]amino]-1,3,4-oxadiazole-2-carbonyl]amino]-2-pyridyl]-6-azaspiro [2.5] octane-2-carboxylic acid] |  | 64 nM | 
O=C(Nc1ccc(N2CCC3(CC2)CC(F)(F)C3)nc1)c1nnc(Nc2ccc(OCC(F)(F)F)nc2)o1 [Example D2] |  | 64 nM | 
O=C(Nc1ccc(N2CCC3(CC2)CC(C(=O)N2CC(O)C2)C3)nc1)c1nnc(Nc2ccc(F)c(F)c2)o1 [Example C8] |  | 11 nM | 
O=C(Nc1ccc([C@H]2CC[C@]3(CC2)CC3C(=O)O)nc1)c1nnc(Nc2ccc(F)c(F)c2)o1 (stereo partly drawn) [Example B26, Trans-6-[5-[[5-(3,4-difluoroanilino)-1,3,4-oxadiazole-2-carbonyl]amino]-2-pyridyl] spiro [2.5] octane-2-carboxylic acid] | 37% |  | 
Nc1ncnc2ncn(-c3ccc(N4CCC5(CC4)CC(F)C5)nc3)c(=O)c12 [Example K4] | 19% |  | 
CC1CCCCN1C(=O)C1CC2(CCN(c3ccc(NC(=O)c4nnc(Nc5ccc(F)c(F)c5)o4)cn3)CC2)C1 (centres unmarked) [Example C2] | 88% |  | 
NC(=O)CC1CCC2(CC1)CCN(c1ccc(NC(=O)c3nnc(Nc4ccc(F)c(F)c4)o3)cn1)CC2 [Example F2, N-[6-[3-(2-amino-2-oxo-ethyl)-9-azaspiro[5.5]undecan-9-yl]-3-pyridyl]-5-(3,4-difluoroanilino)-1,3,4-oxadiazole-2-carboxamide] |  | 19 nM | 
